Results taken from US20050074879A1, “Antisense oligonucleotide modulation of STAT3 expression” (priority 2000, published 2005).
Oligonucleotides are written 5' to 3', each unit as a sugar letter and its base; * is a phosphorothioate linkage, no mark a phosphodiester; rarer units and linkages stand in square brackets, end groups in braces. Plain capitals give the bases only. e = 2'-O-(2-methoxyethyl) (MOE); [5mC] = 5-methylcytosine; d = 2'-deoxy (DNA)

Legend:
Mouse B16 melanoma cells = experiment: Cell number of B16 melanoma cells after antisense treatment; type: cell-based; conditions: 24 hours after transfection
Procedure: Mouse B16 melanoma cells were grown in RPMI 1640 (Life Technologies, Inc., Grand Island, N.Y.) medium supplemented with 10% fetal bovine serum, 2 mM L-glutamine, 1 mM sodium pyruvate, 1% MEM nonessential amino acids and 100 IU/ml penicillin/streptomycin.
(§1) Cells were treated with ISIS 17152, targeted to mouse STAT3, or the 3-base mismatch control, ISIS 28084 ([…]; SEQ ID NO: 151). Cells were transfected with oligonucleotide using LipofectAMINE PLUSJ reagent (GibcoBRL). Oligonucleotide was pre-complexed with LipofectAMINE PLUSJ by adding the oligonucleotide to 100 μl serum-free RPMI 1640 medium, then 6 μl LipofectAMINE PLUSJ reagent was added, the sample was mixed well and incubated for 15 minutes at room temperature. An additional 4 μl of LipofectAMINE PLUSJ reagent was diluted to 100 μl in serum-free RPMI. This diluted LipofectAMINE PLUSJ was mixed with the pre-complexed oligonucleotide/LipofectAMINE PLUSJ mixture and incubated for 15 minutes at room temperature. 800 μl of serum-free RPMI 1640 was added, and the resulting oligonucleotide-LipofectAMINE PLUSJ-medium mixture (approximately 1 ml) was added to cells in a 6-well plate. After 3 hours incubation, 1 ml of RPMI 1640 supplemened with 20% fetal bovine serum was added. Oligonucleotide concentrations were 200 nM or 300 nM.
24 hours after transfection, cells were counted to determine the effect of antisense treatment on cell death. Cells were harvested at 24 hours post transfection for western blot analysis and at 48 hours post-transfection for Annexin-V staining for apoptosis.

Mouse STAT3 protein = experiment: STAT3 protein levels in BCL1 cells by Western blot, dose response; type: cell-based; conditions: compared with mismatch control
Procedure: ISIS 17152 (SEQ ID. NO. 99) was chosen for further study. The effect of this oligonucleotide on protein levels was determined by Western blot. ISIS 23177 (SEQ ID NO. 106), a 3 base mismatch, was used as a control. BCL1 cells were grown, treated and processed as described in Example 2.
Nuclear extracts from primary B cells and B lymphoma cell lines were prepared as described in Karras, J. G., et al. (J. Exp. Med., 1997, 185, 1035-1042).
Western blotting was performed as described in Karras, J. G. et al. (J. Immunol., 1996, 157, 2299). STAT1 and STAT3 antibodies were obtained from UBI (Lake Placid, N.Y.).

STAT3 protein = STAT3 protein in B16 cells, Western blot; type: cell-based, mouse; conditions: 200 nM or 300 nM, 24 hours after treatment
Procedure: as §1
24 hours after transfection, cells were counted to determine the effect of antisense treatment on cell death. Cells were harvested at 24 hours post transfection for western blot analysis and at 48 hours post-transfection for Annexin-V staining for apoptosis. […]

B16 cells = experiment: Apoptosis in B16 cells, Annexin V-PE staining and flow cytometry; type: cell-based, mouse
Procedure: as §1
24 hours after transfection, cells were counted to determine the effect of antisense treatment on cell death. […]
Apoptosis in B16 cells was measured by staining with Annexin V-PE (Clontech) and flow cytometry analysis 48 hours after antisense treatment. […]

BCL1 cells = experiment: BCL1 cell proliferation, [3H]-thymidine incorporation; type: cell-based, mouse; conditions: summary of Table 6
Procedure: The effect of ISIS 17152 (SEQ ID NO. 99) on BCL1 proliferation was determined. BCL1 cells contain constitutively active STAT3 which is thought to be responsible for their proliferation. BCL1 cells were grown, treated and processed as described in Example 2.
1×10^5 BCL1 cells were incubated in 96-well plates in […] complete RPMI following electroporation. Cultures were pulsed with […] of [^3H]-thymidine for the last 8 hours of culture and cells were harvested and analyzed for thymidine incorporation as described in Francis, D. A. et al. (Int. Immunol., 1995, 7, 151-161) 48 hours after electroporation.

RANTES mRNA = experiment: Induction of chemokines in BCL1 cells, RNase protection assay: RANTES; type: cell-based, mouse; conditions: statement covers all three chemokines
Procedure: The effect of ISIS 17152 (SEQ ID. NO. 99) on chemokine levels was determined. BCL1 cells were grown, treated and processed as described in Example 2. Chemokine gene expression was induced in BCL1 cells by addition of […] of a CpG-containing oligonucleotide to the media 16 hours following antisense oligonucleotide electroporation. CpG-containing oligonucleotides are immune-stimulatory (Krieg, A. M., et al., Nature, 1995, 374, 546-549). The levels of chemokines were measured eight hours later using RNase protection assay as described in Example 2 with a mouse chemokine template set, Mck-5 (Pharmingen, San Diego, Calif.).

[1] = test system: IgM secretion by BCL1 cells; experiment: BCL1 IgM secretion, ELISA; type: cell-based, mouse; conditions: compared with mismatch control
Procedure: The effect of ISIS 17152 (SEQ ID. NO. 99) on IgM secretion levels was determined. STAT3 has been implicated in regulation of IgM expression (Faris, M., et al., Immunology, 1997, 90, 350-357). BCL1 cells were grown, treated and processed as described in Example 2.
1×10^6 BCL1 cells were incubated in 12-well plates in 2 mL complete RPMI following electroporation. Supernatant was replaced at 24 hour post electroporation with fresh medium. 48 hours later, supernatants were harvested, centrifuged to remove cells, and assayed for IgM content using the OPT-EIA™ ELISA kit (Pharmingen, San Diego, Calif.) and capture and detecting antibodies for mouse IgM (Southern Biotechnology, Birmingham, Ala.).

[2] = test system: LNCaP human prostatic carcinoma xenograft; experiment: LNCaP mouse model of prostate carcinoma: tumor volume and serum PSA in castrated nude mice; type: in vivo; conditions: 10 mg/kg intraperitoneally, up to 10 weeks post-castration
Procedure: The LNCaP murine model of human prostate carcinoma is described in Kiyama et al., Cancer Res. 63:3575-3584, 2003, incorporated herein by reference. Briefly, LNCaP human prostatic carcinoma cells were cultured and maintained in RPMI medium (Life Technologies, Inc., Carlsbad, Calif.) supplemented with 5% heat inactivated fetal calf serum (FCS). About 1×10^6 LNCaP cells were inoculated subcutaneously with 0.1 ml of Matrigel (Becton Dickinson Labware, Franklin Lakes, N.J.) in the flank region of 6-8 week old male athymic nude mice (Harlan Sprague Dawley, Inc., Indianapolis, Ind.) via a 27 gauge needle under methoxyfluorane anesthesia. Mice bearing tumors between 300 and 500 mm^3 in volume were castrated via a scrotal approach and randomly assigned to treatment with 10 mg/kg of either ISIS 113176 human antisense or ISIS 129987 human mismatch control STAT 3 oligonucleotide intraperitoneally five times per week for the first week followed by three times per week thereafter. Treatment commenced beginning one day after castration. […] Tumor volumes were calculated by the formula L×W×H×0.5236 (Gleave et al., Cancer Res. 51:1598-1605, 1992). Blood samples were obtained from tail vein incisions of mice, and serum PSA levels were determined by an enzymatic immunoassay kit with a lower limit of sensitivity of 0.2 μg/liter (Abbott IMX, Montreal, Quebec, Canada) according to the manufacturer's protocol.

Human STAT3 mRNA = experiment: Inhibition of human STAT3 mRNA expression in U266 cells, Northern blot; type: cell-based; conditions: following electroporation, Northern blotting

AAAAAGTGCCCAGATTGCCC (antisense eA*eA*eA*eA*eA*dG*dT*dG*dC*dC*dC*dA*dG*dA*dT*eT*eG*e[5mC]*e[5mC]*e[5mC]) [ISIS 17152]
cell number (Mouse B16 melanoma cells; 200 nM, Expt 1): 3.8 × 10^5 | cell number (Mouse B16 melanoma cells; 200 nM, Expt 2): 6.8 × 10^5 | cell number (Mouse B16 melanoma cells; 200 nM, Expt 3): 1.8 × 10^5 | cell number (Mouse B16 melanoma cells; 300 nM, Expt 2): 3.5 × 10^5 | cell number (Mouse B16 melanoma cells; 300 nM, Expt 3): 2.2 × 10^5 | reducing STAT3 protein levels (in words) (Mouse STAT3 protein): significantly better at reducing STAT3 protein levels than the mismatch control | STAT3 protein production (in words) (STAT3 protein): significantly reduced | cells staining positive for Annexin-V (B16 cells; 48 hours after antisense treatment): 29.84% | increase in apoptotic cells (B16 cells; versus mock and control oligonucleotide): nearly threefold increase | reduction of BCL1 cell proliferation (BCL1 cells): approximately 50% | expression of the chemokines, RANTES, MIP-1 and MIP-1 (in words) (RANTES mRNA): able to induce the expression of the chemokines | reducing IgM secretion (in words) [1]: significantly better at reducing IgM secretion than the mismatch control

GCTCCAGCATCTGCTGCTTC (antisense eG*e[5mC]*eT*e[5mC]*e[5mC]*dA*dG*d[5mC]*dA*dT*d[5mC]*dT*dG*d[5mC]*dT*eG*e[5mC]*eT*eT*e[5mC]) [ISIS 113176]
induction of serum PSA levels [2]: suppressed | tumor growth [2]: suppressed | STAT3 mRNA expression in U266 cells (in words) (Human STAT3 mRNA): potently inhibit STAT3 mRNA expression
